Measurements as given in PMC9138545, “Incorporation of Oxidized Phenylalanine Derivatives into Insulin Signaling Relevant Proteins May Link Oxidative Stress to Signaling Conditions Underlying Chronic Insulin Resistance” (Biomedicines, 2022).
Entries after “also recorded” stand apart in the source; their conditions may differ.

Key:
IRS-1 (Tyr612) = test: Western blot, activating phosphorylation of IRS-1 (Tyr612); assay type: cell-based; settings: n = 4–8; for insulin-induced IRS-1 phosphorylation: 400 nmol/L insulin, adipocytes, HEK cells, podocytes, macrophages; for basal IRS-1 phosphorylation: without insulin, cells grown on o- or m-Tyr medium
Procedure: (§1) Early passages of mouse embryo fibroblast (3T3-L1) (ATCC, Manassas, VA, US) were cultured in Dulbecco’s modified Eagle medium (DMEM, Sigma Aldrich, Budapest, Hungary, CAT number: D6046; Invitrogen, Waltham, MA, USA, CAT number: 41966-029) supplemented with 100 U/mL penicillin, 0.1 mg/mL streptomycin (Gibco, Budapest, Hungary, CAT number: 15070-063) and 10% heat-inactivated Fetal Bovine Serum (FBS, Gibco, CAT number: 16170-078), supplemented with 398 nM p-, m-, or o-Tyr (equimolar to the original p-Tyr content of the medium) purchased from Sigma (CAT number: para-Tyr: T8566, m-Tyr: T3629, o-Tyr: 93851). Media contained 25 or 5 mmol/L glucose (experiment dependent) pyruvate and L-glutamine. Cells were grown at 37 °C and 5% CO2. Adipocyte differentiation was achieved by DMEM supplemented with 10% FBS (Gibco, Csertex, Budapest, Hungary, CAT number: 10106-169) (FBS) and a […] insulin (Sigma Aldrich, Budapest, Hungary, CAT number: I 9278), […] isobuthylmethylxanthine (Sigma Aldrich, Budapest, Hungary, CAT number: I 5879), and 250 nmol/L dexamethasone (Sigma Aldrich, Budapest, Hungary, CAT number: 861871) containing cocktail. From day 4 onward, cultures were maintained in DMEM containing 1.5 μg/mL insulin and 10% FBS with a medium change every other day until experimental treatments were started. After 90% of the cell population reached the adipocyte phenotype, prior to all treatments, cells were incubated overnight in serum-deprived medium. Experimental treatment was performed in serum-deprived medium containing 200 or 400 nmol/L insulin, for 5 min.
(§2) The conditionally immortalized human podocyte cell line (provided by Moin Saleem, University of Bristol, UK) was cultured in RPMI1640 medium (R8756, Sigma Aldrich, Budapest, Hungary) supplemented with 10% heat-inactivated FBS (16170-078, Gibco, Budapest, Hungary), insulin-transferrin-selenium supplement (41400-045, Gibco), 100 U/mL penicillin, 0.1 mg/mL streptomycin (P4333, Sigma), and […] (equimolar to the original p-Tyr content of the medium) para-, meta-, or ortho-Tyr. The cells were grown at 33 °C 5% CO2, and when they reached 40–60% confluency they were transferred to 37 °C to differentiate. Following the thermoswitching, cells were kept on RPMI1640 medium containing 2% FBS, antibiotics, and different tyrosines. Before every treatment, cells were incubated in serum-deprived medium overnight.
(§3) HEK-293 immortalized cell line (ATCC, Manassas, VA, USA) of epithelial morphology and the J774A.1 mouse BALB/C monocyte-macrophage cell lines (91051511-1VL, Sigma Aldrich, Budapest, Hungary) were cultured in Petri dishes with a medium composed of Dulbecco’s modified Eagle’s medium (DMEM, Sigma Aldrich, Budapest, Hungary, CAT number: D6046, Invitrogen, CAT number: 41966-029), with a 10% heat-inactivated FBS supplementation (16170-078, Gibco), insulin-transferrin-selenium supplement (41400-045, Gibco, Budapest, Hungary,), 100 U/mL penicillin and 0.1 mg/mL streptomycin (P4333, Sigma) and 398 nM para (5 and 25 mmol/L), meta-, or ortho-Tyr (T8566, T3629, 93851, Sigma). Before treatment, cells were incubated in serum-deprived medium overnight as well. […]
(§4) The samples of lysates were vortexed and centrifuged (10 min, 13,000 rpm, at 4 °C). Protein content of the samples was determined by the Lowry method using bovine serum albumin as a standard. […]

Akt (Ser473) = test: Western blot, activating phosphorylation of Akt (Ser473); assay type: cell-based; settings: n = 4–8; for insulin-induced Akt phosphorylation: 400 nmol/L insulin, adipocytes, HEK cells, podocytes, macrophages; for basal Akt phosphorylation: without insulin, cells grown on o- or m-Tyr medium
Procedure: as §1, §2, §3, §4

p-IRS-1 in podocytes = test: Immunofluorescence of p-IRS-1 in insulin-treated podocytes; assay type: cell-based, human; settings: 400 nmol/l insulin for 10 min; for p-IRS-1 intensity: vs. p-Tyr
Procedure: as §2
In a 6-well plate, 104 cells were cultured on glass coverslips washed with alcohol and dried under UV light. The podocyte cells were grown in RPMI1640 medium supplemented with 10% heat-inactivated FBS at 33 °C, 5% CO2. When they reached 60% confluence, the medium was changed to RPMI1640 medium containing 2% FBS and 112.05 nM of the different tyrosine isoforms, then the plates were transferred to 37 °C, 5% CO2 to allow the cells to differentiate. The different tyrosine isoforms were added to the maintenance medium. The cells were serum deprived overnight, then incubated with 400 nmol/l insulin for 10 min. After removal of the medium, the coverslips were washed twice with PBS. The cells were fixed at room temperature in 2% paraformaldehyde and 4% sucrose for 8 min, then permeabilized using 0.3% Trion X-100 in 1xPBS for 20 min and blocked in 2.5% BSA for 45 min [45]. The primary antibody was diluted in 1xPBS, and the cells were incubated in it for 60 min in humid conditions. The antibodies we used were mouse anti-WT1 antibody (H-1) (1:100, Santa Cruz Biotechnology, Dallas, TX, USA), chicken anti-vimentin antibody (1:100, Abcam), rabbit anti-glucose transporter GLUT4 antibody (1:100, Abcam, Cambridge, UK), mouse Insulin Receptor Substrate-1 antibody (1:100, Invitrogen, Waltham, MA, USA), and rabbit anti-phospho-Insulin Receptor Substrate-1 (pTyr612) antibody (1:10, Sigma). Coverslips were washed in PBS three times for 5 min in PBS and incubated in the fluorophore-conjugated secondary antibodies anti-goat, anti-chicken, secondary antibody Alexa fluor 647, anti-rabbit Alexa fluor 350, and anti-mouse Alexa Fluor 488 (1:10, Invitrogen) for 60 min. Samples were then washed in PBS three times for 5 min and mounted in Vectashield (Vector Laboratories). Images were taken with a Nikon Eclipse Ti2 microscope.

erythroblasts = settings: ref [43]; cited from earlier work
From the text: Furthermore, m- and o-Tyr may have a role beyond being markers ROS attack. […] For example, we have described that patients on renal replacement therapy show a connection between plasma levels of o-Tyr and erythropoietin (EPO) resistance. In a further set of experiments, m- and o-Tyr in ...

Row | SMILES | insulin-induced IRS-1 phosphorylation (IRS-1 (Tyr612)) | basal IRS-1 phosphorylation (IRS-1 (Tyr612)) | insulin-induced Akt phosphorylation (Akt (Ser473)) | basal Akt phosphorylation (Akt (Ser473)) | membrane translocation of IRS-1 / p-IRS-1 (p-IRS-1 in podocytes) | p-IRS-1 intensity (p-IRS-1 in podocytes) | EPO-dependent proliferation of erythroblasts (erythroblasts) | membrane translocation of IRS-1 / p-IRS-1 (p-IRS-1 in podocytes; listed as o-Ty)
1 | N[C@@H](Cc1cccc(O)c1)C(=O)O [m-Tyr, meta-tyrosine] | could not be further raised by insulin treatment | either unchanged or higher | could not be further raised by insulin treatment | either unchanged or higher | absent; also recorded: not characteristic | lower | inhibited the EPO-dependent proliferation of erythroblasts, in a time- and dose-dependent manner | –
2 | NC(Cc1ccccc1O)C(=O)O (stereo not drawn) [o-Tyr, ortho-tyrosine] | could not be further raised by insulin treatment | either unchanged or higher | could not be further raised by insulin treatment | either unchanged or higher | not characteristic | lower; also recorded: the signal almost disappears | inhibited the EPO-dependent proliferation of erythroblasts, in a time- and dose-dependent manner | absent
